# Source: US6339045B1, “N-(unsubstituted or substituted)-4-substituted-6-(unsubstituted or substituted)phenoxy-2-pyridinecarboxamides or thiocarboxamides, processes for producing the same, and herbicides” (Kureha Kagaku Kogyo Kabushiki Kaisha, priority 1995, dated 2002)
# Key:
# [1] = test system: redroot pigweed (Amaranthus retroflexus); experiment: Herbicidal effect by foliage and soil treatment; format: in vivo; settings: evaluated after 14 days
# Method in brief: (§1)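 Scores are ratings of growth versus untreated plants 14 days after treatment. Plants grown to cotyledonal–bifoliate stage in granular soil at 19 to 25° C received a foliage-and-soil spray of test solution containing Tween 20, applied at a set compound amount.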
# [2] = test system: black nightshade (Solanum nigrum); experiment: Herbicidal effect by foliage and soil treatment; format: in vivo; settings: evaluated after 14 days
# Method in brief: as §1
# [3] = test system: kediock (Sinapis arvensis); experiment: Herbicidal effect by foliage and soil treatment; format: in vivo; settings: evaluated after 14 days
# Method in brief: as §1
# [4] = test system: cleavers (Galium aparine); experiment: Herbicidal effect by foliage and soil treatment; format: in vivo; settings: evaluated after 14 days
# Method in brief: as §1
# [5] = test system: common blackjack (Bidens pilosa); experiment: Herbicidal effect by foliage and soil treatment; format: in vivo; settings: evaluated after 14 days
# Method in brief: as §1
# [6] = test system: ivyleafspeedwell (Veronica hederaefolia); experiment: Herbicidal effect by foliage and soil treatment; format: in vivo; settings: evaluated after 14 days
# Method in brief: as §1
# [7] = test system: wild chamomile (Matricaria chamomilla); experiment: Herbicidal effect by foliage and soil treatment; format: in vivo; settings: evaluated after 14 days
# Method in brief: as §1
# [8] = test system: common chickweed (Stellaria media); experiment: Herbicidal effect by foliage and soil treatment; format: in vivo; settings: evaluated after 14 days
# Method in brief: as §1
# [9] = test system: sicklepod (Cassia obtusifolia); experiment: Herbicidal effect by foliage and soil treatment; format: in vivo; settings: evaluated after 14 days
# Method in brief: as §1
# [10] = test system: velvetleaf (Abutilon theophrasti); experiment: Herbicidal effect by foliage and soil treatment; format: in vivo; settings: evaluated after 14 days
# Method in brief: as §1
# [11] = test system: field bindweed (Convolvulus arvensis); experiment: Herbicidal effect by foliage and soil treatment; format: in vivo; settings: evaluated after 14 days
# Method in brief: as §1
smiles,measurement,setting,value
"CCS(=O)(=O)CCNC(=O)c1cc(OC)cc(Oc2cccc(C(F)(F)F)c2)n1 [Compound I-68, N-{2-(ethylsulfonyl)ethyl}-4-methoxy-6-{3-(trifluoromethyl)phenoxy}-2-pyridine carboxamide]",melting point,,92 to 94 °C
same,"herbicidal activity rating, AR (Amaranthus retroflexus)",[1]; 10 g ai/10a,5 (percentage of weeds killed was not less than 80%)
same,"herbicidal activity rating, SN (Solanum nigrum)",[2]; 10 g ai/10a,5 (percentage of weeds killed was not less than 80%)
same,"herbicidal activity rating, SA (Sinapis arvensis)",[3]; 10 g ai/10a,5 (percentage of weeds killed was not less than 80%)
same,"herbicidal activity rating, GA (Galium aparine)",[4]; 10 g ai/10a,5 (percentage of weeds killed was not less than 80%)
same,"herbicidal activity rating, BP (Bidens pilosa)",[5]; 10 g ai/10a,4 (percentage of weeds killed was not less than 60% and less than 80%)
same,"herbicidal activity rating, VH (Veronica hederaefolia)",[6]; 10 g ai/10a,5 (percentage of weeds killed was not less than 80%)
same,"herbicidal activity rating, MC (Matricaria chamomilla)",[7]; 10 g ai/10a,2 (percentage of weeds killed was not less than 20% and less than 40%)
same,"herbicidal activity rating, SM (Stellaria media)",[8]; 10 g ai/10a,4 (percentage of weeds killed was not less than 60% and less than 80%)
same,"herbicidal activity rating, CO (Cassia obtusifolia)",[9]; 10 g ai/10a,5 (percentage of weeds killed was not less than 80%)
same,"herbicidal activity rating, AT (Abutilon theophrasti)",[10]; 10 g ai/10a,5 (percentage of weeds killed was not less than 80%)
same,"herbicidal activity rating, CA (Convolvulus arvensis)",[11]; 10 g ai/10a,4 (percentage of weeds killed was not less than 60% and less than 80%)
"COc1cc(Oc2cccc(C(F)(F)F)c2)nc(C(=O)N2CC2C)c1 (centres unmarked) [Compound I-300, 4-methoxy-2-{N-(2-methylaziridinyl)carbonyl}-6-{3-(trifluoromethyl)phenoxy}-2-pyridine]","herbicidal activity rating, AR (Amaranthus retroflexus)",[1]; 10 g ai/10a,5 (percentage of weeds killed was not less than 80%)
same,"herbicidal activity rating, SN (Solanum nigrum)",[2]; 10 g ai/10a,5 (percentage of weeds killed was not less than 80%)
same,"herbicidal activity rating, SA (Sinapis arvensis)",[3]; 10 g ai/10a,5 (percentage of weeds killed was not less than 80%)
same,"herbicidal activity rating, GA (Galium aparine)",[4]; 10 g ai/10a,5 (percentage of weeds killed was not less than 80%)
same,"herbicidal activity rating, BP (Bidens pilosa)",[5]; 10 g ai/10a,5 (percentage of weeds killed was not less than 80%)
same,"herbicidal activity rating, VH (Veronica hederaefolia)",[6]; 10 g ai/10a,5 (percentage of weeds killed was not less than 80%)
same,"herbicidal activity rating, MC (Matricaria chamomilla)",[7]; 10 g ai/10a,2 (percentage of weeds killed was not less than 20% and less than 40%)
same,"herbicidal activity rating, SM (Stellaria media)",[8]; 10 g ai/10a,5 (percentage of weeds killed was not less than 80%)
same,"herbicidal activity rating, CO (Cassia obtusifolia)",[9]; 10 g ai/10a,5 (percentage of weeds killed was not less than 80%)
same,"herbicidal activity rating, AT (Abutilon theophrasti)",[10]; 10 g ai/10a,4 (percentage of weeds killed was not less than 60% and less than 80%)
same,"herbicidal activity rating, CA (Convolvulus arvensis)",[11]; 10 g ai/10a,4 (percentage of weeds killed was not less than 60% and less than 80%)
"COc1cc(Oc2cccc(C(F)(F)F)c2)nc(C(=O)N2CCCC2)c1 [Compound I-302, 4-methoxy-2-{N-(pyrrolidinyl)carbonyl}-6-{3-(trifluoromethyl)phenoxy}pyridine]","herbicidal activity rating, AR (Amaranthus retroflexus)",[1]; 10 g ai/10a,5 (percentage of weeds killed was not less than 80%)
same,"herbicidal activity rating, SN (Solanum nigrum)",[2]; 10 g ai/10a,5 (percentage of weeds killed was not less than 80%)
same,"herbicidal activity rating, SA (Sinapis arvensis)",[3]; 10 g ai/10a,5 (percentage of weeds killed was not less than 80%)
same,"herbicidal activity rating, GA (Galium aparine)",[4]; 10 g ai/10a,5 (percentage of weeds killed was not less than 80%)
same,"herbicidal activity rating, BP (Bidens pilosa)",[5]; 10 g ai/10a,2 (percentage of weeds killed was not less than 20% and less than 40%)
same,"herbicidal activity rating, VH (Veronica hederaefolia)",[6]; 10 g ai/10a,5 (percentage of weeds killed was not less than 80%)
same,"herbicidal activity rating, MC (Matricaria chamomilla)",[7]; 10 g ai/10a,4 (percentage of weeds killed was not less than 60% and less than 80%)
same,"herbicidal activity rating, SM (Stellaria media)",[8]; 10 g ai/10a,5 (percentage of weeds killed was not less than 80%)
same,"herbicidal activity rating, CO (Cassia obtusifolia)",[9]; 10 g ai/10a,5 (percentage of weeds killed was not less than 80%)
same,"herbicidal activity rating, AT (Abutilon theophrasti)",[10]; 10 g ai/10a,4 (percentage of weeds killed was not less than 60% and less than 80%)
same,"herbicidal activity rating, CA (Convolvulus arvensis)",[11]; 10 g ai/10a,4 (percentage of weeds killed was not less than 60% and less than 80%)
CC(C)NC(=O)c1cccc(Oc2cccc(C(F)(F)F)c2)n1 [control (a)],"herbicidal activity rating, AR (Amaranthus retroflexus)",[1]; 10 g ai/10a,3 (percentage of weeds killed was not less than 40% and less than 60%)
same,"herbicidal activity rating, AR (Amaranthus retroflexus)",[1]; 25 g ai/10a,3 (percentage of weeds killed was not less than 40% and less than 60%)
same,"herbicidal activity rating, AR (Amaranthus retroflexus)",[1]; 62.5 g ai/10a,4 (percentage of weeds killed was not less than 60% and less than 80%)
same,"herbicidal activity rating, SN (Solanum nigrum)",[2]; 10 g ai/10a,4 (percentage of weeds killed was not less than 60% and less than 80%)
same,"herbicidal activity rating, SN (Solanum nigrum)",[2]; 25 g ai/10a,4 (percentage of weeds killed was not less than 60% and less than 80%)
same,"herbicidal activity rating, SN (Solanum nigrum)",[2]; 62.5 g ai/10a,5 (percentage of weeds killed was not less than 80%)
same,"herbicidal activity rating, SA (Sinapis arvensis)",[3]; 10 g ai/10a,3 (percentage of weeds killed was not less than 40% and less than 60%)
same,"herbicidal activity rating, SA (Sinapis arvensis)",[3]; 25 g ai/10a,4 (percentage of weeds killed was not less than 60% and less than 80%)
same,"herbicidal activity rating, SA (Sinapis arvensis)",[3]; 62.5 g ai/10a,5 (percentage of weeds killed was not less than 80%)
same,"herbicidal activity rating, GA (Galium aparine)",[4]; 10 g ai/10a,2 (percentage of weeds killed was not less than 20% and less than 40%)
same,"herbicidal activity rating, GA (Galium aparine)",[4]; 25 g ai/10a,3 (percentage of weeds killed was not less than 40% and less than 60%)
same,"herbicidal activity rating, GA (Galium aparine)",[4]; 62.5 g ai/10a,4 (percentage of weeds killed was not less than 60% and less than 80%)
same,"herbicidal activity rating, BP (Bidens pilosa)",[5]; 10 g ai/10a,1 (percentage of weeds killed was less than 20%)
same,"herbicidal activity rating, BP (Bidens pilosa)",[5]; 25 g ai/10a,1 (percentage of weeds killed was less than 20%)
same,"herbicidal activity rating, BP (Bidens pilosa)",[5]; 62.5 g ai/10a,1 (percentage of weeds killed was less than 20%)
same,"herbicidal activity rating, VH (Veronica hederaefolia)",[6]; 10 g ai/10a,3 (percentage of weeds killed was not less than 40% and less than 60%)
same,"herbicidal activity rating, VH (Veronica hederaefolia)",[6]; 25 g ai/10a,4 (percentage of weeds killed was not less than 60% and less than 80%)
same,"herbicidal activity rating, VH (Veronica hederaefolia)",[6]; 62.5 g ai/10a,5 (percentage of weeds killed was not less than 80%)
same,"herbicidal activity rating, MC (Matricaria chamomilla)",[7]; 10 g ai/10a,1 (percentage of weeds killed was less than 20%)
same,"herbicidal activity rating, MC (Matricaria chamomilla)",[7]; 25 g ai/10a,1 (percentage of weeds killed was less than 20%)
same,"herbicidal activity rating, MC (Matricaria chamomilla)",[7]; 62.5 g ai/10a,1 (percentage of weeds killed was less than 20%)
same,"herbicidal activity rating, SM (Stellaria media)",[8]; 10 g ai/10a,1 (percentage of weeds killed was less than 20%)
same,"herbicidal activity rating, SM (Stellaria media)",[8]; 25 g ai/10a,1 (percentage of weeds killed was less than 20%)
same,"herbicidal activity rating, SM (Stellaria media)",[8]; 62.5 g ai/10a,1 (percentage of weeds killed was less than 20%)
same,"herbicidal activity rating, CO (Cassia obtusifolia)",[9]; 10 g ai/10a,1 (percentage of weeds killed was less than 20%)
same,"herbicidal activity rating, CO (Cassia obtusifolia)",[9]; 25 g ai/10a,2 (percentage of weeds killed was not less than 20% and less than 40%)
same,"herbicidal activity rating, CO (Cassia obtusifolia)",[9]; 62.5 g ai/10a,3 (percentage of weeds killed was not less than 40% and less than 60%)
same,"herbicidal activity rating, AT (Abutilon theophrasti)",[10]; 10 g ai/10a,2 (percentage of weeds killed was not less than 20% and less than 40%)
same,"herbicidal activity rating, AT (Abutilon theophrasti)",[10]; 25 g ai/10a,3 (percentage of weeds killed was not less than 40% and less than 60%)
same,"herbicidal activity rating, AT (Abutilon theophrasti)",[10]; 62.5 g ai/10a,3 (percentage of weeds killed was not less than 40% and less than 60%)
same,"herbicidal activity rating, CA (Convolvulus arvensis)",[11]; 10 g ai/10a,2 (percentage of weeds killed was not less than 20% and less than 40%)
same,"herbicidal activity rating, CA (Convolvulus arvensis)",[11]; 25 g ai/10a,3 (percentage of weeds killed was not less than 40% and less than 60%)
same,"herbicidal activity rating, CA (Convolvulus arvensis)",[11]; 62.5 g ai/10a,3 (percentage of weeds killed was not less than 40% and less than 60%)
CCCNC(=O)c1cccc(Oc2cccc(C(F)(F)F)c2)n1 [control (b)],"herbicidal activity rating, AR (Amaranthus retroflexus)",[1]; 10 g ai/10a,5 (percentage of weeds killed was not less than 80%)
same,"herbicidal activity rating, SN (Solanum nigrum)",[2]; 10 g ai/10a,5 (percentage of weeds killed was not less than 80%)
same,"herbicidal activity rating, SA (Sinapis arvensis)",[3]; 10 g ai/10a,5 (percentage of weeds killed was not less than 80%)
same,"herbicidal activity rating, GA (Galium aparine)",[4]; 10 g ai/10a,5 (percentage of weeds killed was not less than 80%)
same,"herbicidal activity rating, BP (Bidens pilosa)",[5]; 10 g ai/10a,1 (percentage of weeds killed was less than 20%)
same,"herbicidal activity rating, VH (Veronica hederaefolia)",[6]; 10 g ai/10a,5 (percentage of weeds killed was not less than 80%)
same,"herbicidal activity rating, MC (Matricaria chamomilla)",[7]; 10 g ai/10a,1 (percentage of weeds killed was less than 20%)
same,"herbicidal activity rating, SM (Stellaria media)",[8]; 10 g ai/10a,4 (percentage of weeds killed was not less than 60% and less than 80%)
same,"herbicidal activity rating, CO (Cassia obtusifolia)",[9]; 10 g ai/10a,3 (percentage of weeds killed was not less than 40% and less than 60%)
same,"herbicidal activity rating, AT (Abutilon theophrasti)",[10]; 10 g ai/10a,3 (percentage of weeds killed was not less than 40% and less than 60%)
same,"herbicidal activity rating, CA (Convolvulus arvensis)",[11]; 10 g ai/10a,2 (percentage of weeds killed was not less than 20% and less than 40%)
CCCNC(=S)c1cccc(Oc2cccc(C(F)(F)F)c2)n1 [control (c)],"herbicidal activity rating, AR (Amaranthus retroflexus)",[1]; 10 g ai/10a,5 (percentage of weeds killed was not less than 80%)
same,"herbicidal activity rating, SN (Solanum nigrum)",[2]; 10 g ai/10a,4 (percentage of weeds killed was not less than 60% and less than 80%)
same,"herbicidal activity rating, SA (Sinapis arvensis)",[3]; 10 g ai/10a,5 (percentage of weeds killed was not less than 80%)
same,"herbicidal activity rating, GA (Galium aparine)",[4]; 10 g ai/10a,4 (percentage of weeds killed was not less than 60% and less than 80%)
same,"herbicidal activity rating, BP (Bidens pilosa)",[5]; 10 g ai/10a,1 (percentage of weeds killed was less than 20%)
same,"herbicidal activity rating, VH (Veronica hederaefolia)",[6]; 10 g ai/10a,5 (percentage of weeds killed was not less than 80%)
same,"herbicidal activity rating, MC (Matricaria chamomilla)",[7]; 10 g ai/10a,1 (percentage of weeds killed was less than 20%)
same,"herbicidal activity rating, SM (Stellaria media)",[8]; 10 g ai/10a,3 (percentage of weeds killed was not less than 40% and less than 60%)
same,"herbicidal activity rating, CO (Cassia obtusifolia)",[9]; 10 g ai/10a,2 (percentage of weeds killed was not less than 20% and less than 40%)
same,"herbicidal activity rating, AT (Abutilon theophrasti)",[10]; 10 g ai/10a,3 (percentage of weeds killed was not less than 40% and less than 60%)
same,"herbicidal activity rating, CA (Convolvulus arvensis)",[11]; 10 g ai/10a,2 (percentage of weeds killed was not less than 20% and less than 40%)
